Measurements: patent publication US9302991B2, “Arylamide derivatives as TTX-S blockers” (RaQualia Pharma Inc., priority 2010, dated 2016)

Molecular target: T1, human Nav1.7 channels (Homo sapiens, UniProt Q15858)
T1 construct: expressed in transfected cells; host or cells: CHO
Test: FRET assay, human Nav1.7 (EFS on FDSS)
Format: cell-based
Details: CHO cells expressing human Nav1.7, read-out: IC50 against Nav1.7
Summary of the method: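 IC50 was derived from normalized 440 nm fluorescence ratios of the EFS-evoked membrane-potential response read on FDSS. Recombinant CHO cells were sequentially dye-loaded with coumarin/oxonol FRET pair at room temperature in pH 7.4 buffer before compound addition.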

T1 sequence (Q15858 whole entry): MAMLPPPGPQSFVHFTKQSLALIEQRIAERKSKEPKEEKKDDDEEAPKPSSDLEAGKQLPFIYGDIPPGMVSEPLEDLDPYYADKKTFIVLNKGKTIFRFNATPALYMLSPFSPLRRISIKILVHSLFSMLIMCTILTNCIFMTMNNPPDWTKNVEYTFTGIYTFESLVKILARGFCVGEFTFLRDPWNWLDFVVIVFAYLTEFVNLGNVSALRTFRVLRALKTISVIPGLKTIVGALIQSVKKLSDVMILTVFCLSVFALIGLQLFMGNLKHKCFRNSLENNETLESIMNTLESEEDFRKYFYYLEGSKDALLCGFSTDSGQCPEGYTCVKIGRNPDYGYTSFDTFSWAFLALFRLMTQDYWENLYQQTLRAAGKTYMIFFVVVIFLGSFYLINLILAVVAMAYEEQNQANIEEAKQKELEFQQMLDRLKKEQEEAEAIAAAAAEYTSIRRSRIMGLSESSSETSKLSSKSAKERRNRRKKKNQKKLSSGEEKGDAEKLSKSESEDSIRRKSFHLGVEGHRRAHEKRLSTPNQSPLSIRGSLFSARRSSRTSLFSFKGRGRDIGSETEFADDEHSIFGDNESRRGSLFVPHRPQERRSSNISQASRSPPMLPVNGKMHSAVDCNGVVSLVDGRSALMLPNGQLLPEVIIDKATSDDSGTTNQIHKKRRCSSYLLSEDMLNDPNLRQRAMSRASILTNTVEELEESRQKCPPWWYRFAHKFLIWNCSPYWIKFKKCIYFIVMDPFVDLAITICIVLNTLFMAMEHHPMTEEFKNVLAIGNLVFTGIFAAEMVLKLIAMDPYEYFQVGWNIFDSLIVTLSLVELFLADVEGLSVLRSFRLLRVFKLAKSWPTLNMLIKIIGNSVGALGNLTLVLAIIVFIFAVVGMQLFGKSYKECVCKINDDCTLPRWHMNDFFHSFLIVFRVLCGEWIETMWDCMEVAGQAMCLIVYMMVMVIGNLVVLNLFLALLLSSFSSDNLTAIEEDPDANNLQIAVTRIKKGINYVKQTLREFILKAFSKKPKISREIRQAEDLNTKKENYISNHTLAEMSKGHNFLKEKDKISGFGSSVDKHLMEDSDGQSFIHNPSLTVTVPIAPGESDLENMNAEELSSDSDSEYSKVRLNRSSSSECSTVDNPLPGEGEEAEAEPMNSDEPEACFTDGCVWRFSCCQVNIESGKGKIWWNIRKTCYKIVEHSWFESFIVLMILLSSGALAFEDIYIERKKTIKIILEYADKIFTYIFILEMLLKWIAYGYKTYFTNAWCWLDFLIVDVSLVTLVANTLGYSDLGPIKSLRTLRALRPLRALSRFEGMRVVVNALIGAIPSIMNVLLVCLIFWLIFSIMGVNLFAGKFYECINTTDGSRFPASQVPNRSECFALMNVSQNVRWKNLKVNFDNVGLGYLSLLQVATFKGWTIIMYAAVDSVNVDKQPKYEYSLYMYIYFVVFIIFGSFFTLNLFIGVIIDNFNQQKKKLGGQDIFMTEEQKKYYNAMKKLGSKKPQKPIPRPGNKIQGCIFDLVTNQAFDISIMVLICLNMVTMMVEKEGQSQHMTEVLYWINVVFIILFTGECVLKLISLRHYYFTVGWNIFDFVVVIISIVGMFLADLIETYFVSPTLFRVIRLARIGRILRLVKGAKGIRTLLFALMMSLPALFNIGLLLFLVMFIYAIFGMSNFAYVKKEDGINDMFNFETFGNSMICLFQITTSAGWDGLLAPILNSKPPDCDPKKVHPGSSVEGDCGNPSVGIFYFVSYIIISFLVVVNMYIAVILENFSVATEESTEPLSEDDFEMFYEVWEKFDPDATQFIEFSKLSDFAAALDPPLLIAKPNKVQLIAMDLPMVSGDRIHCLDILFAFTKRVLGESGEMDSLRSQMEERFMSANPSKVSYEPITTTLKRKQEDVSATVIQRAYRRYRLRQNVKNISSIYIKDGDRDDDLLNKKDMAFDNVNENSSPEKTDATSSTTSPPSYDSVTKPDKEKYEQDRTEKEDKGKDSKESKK

Row | SMILES | IC50
1 | Cc1cc(C(=O)NCc2ccc(OCC(F)F)cc2C)cc(NC(=O)C(C)C)n1 [Example 1008, N-(4-(2,2-difluoroethoxy)-2-methylbenzyl)-2-isobutyramido-6-methylisonicotinamide] | < 1000 nM
2 | CC(NC(=O)c1ccnc(NC(=O)C2CC2)c1)c1ccc(OCC(F)(F)C(F)F)nc1 (single isomer, unassigned) [Example 922, 2-(cyclopropanecarboxamido)-N-(1-(6-(2,2,3,3-tetrafluoropropoxy)pyridin-3-yl)ethyl)isonicotinamide] | < 1000 nM
3 | CC(=O)Nc1cc(C(=O)NC(C)c2cnc(OCC(F)F)c(C)c2)cc(C)n1 (single isomer, unassigned) [Example 556, 2-acetamido-N-(1-(6-(2,2-difluoroethoxy)-5-methylpyridin-3-yl)ethyl)-6-methylisonicotinamide] | < 1000 nM
4 | CCC(=O)Nc1cc(C(=O)NCc2ccc(OCC(F)F)c(Cl)c2)ccn1 [Example 998, N-(3-chloro-4-(2,2-difluoroethoxy)benzyl)-2-propionamidoisonicotinamide] | < 1000 nM
5 | CC(=O)Nc1cc(C(=O)N[C@H](C)c2cccc(C(F)(F)F)c2)ccn1 (single isomer, unassigned) [Example 7] | < 1000 nM
6 | O=C(NCc1ccc(OCC(F)(F)F)nc1N1CCCCC1)c1ccnc(NC(=O)C2CC2)c1 [Example 304, 2-(cyclopropanecarboxamido)-N-((2-(piperidin-1-yl)-6-(2,2,2-trifluoroethoxy)pyridin-3-yl)methyl)isonicotinamide] | < 1000 nM
7 | COc1nc(OCC(F)F)ccc1CNC(=O)c1ccnc(NC(=O)C2CC2)c1 [Example 1153, 2-(cyclopropanecarboxamido)-N-((6-(2,2-difluoroethoxy)-2-methoxypyridin-3-yl)methyl)isonicotinamide] | < 1000 nM
8 | Cc1nc(OCC(F)(F)F)ccc1CNC(=O)c1ccnc(NC(=O)C2CC2)n1 [Example 407, 2-(cyclopropanecarboxamido)-N-((2-methyl-6-(2,2,2-trifluoroethoxy)pyridin-3-yl)methyl)pyrimidine-4-carboxamide] | < 1000 nM
9 | CC(C)C(=O)Nc1nccc(C(=O)NCc2cnc(OCC(F)(F)F)c(Cl)c2)n1 [Example 412, N-((5-chloro-6-(2,2,2-trifluoroethoxy)pyridin-3-yl)methyl)-2-isobutyramidopyrimidine-4-carboxamide] | < 1000 nM
10 | COc1c(CNC(=O)c2ccnc(NC(=O)C(C)C)c2)cccc1C(F)(F)F [Example 820, 2-isobutyramido-N-(2-methoxy-3-(trifluoromethyl)benzyl)isonicotinamide] | < 1000 nM
11 | CC(=O)Nc1cc(C(=O)NCc2cnc(OCC(F)F)c(C3CC3)c2)cc(C)n1 [Example 1082, 2-acetamido-N-((5-cyclopropyl-6-(2,2-difluoroethoxy)pyridin-3-yl)methyl)-6-methylisonicotinamide] | < 1000 nM
12 | CC(=O)Nc1cc(C(=O)NC(C)c2cccc(OCC(F)(F)F)c2)cc(C)n1 (single isomer, unassigned) [Example 1009, 2-acetamido-6-methyl-N-(1-(3-(2,2,2-trifluoroethoxy)phenyl)ethyl)isonicotinamide] | < 1000 nM
13 | CCC(=O)Nc1cc(C(=O)NC(C)c2cnc(OCC(F)(F)F)c(F)c2)cc(C)n1 (single isomer, unassigned) [Example 131, N-(1-(5-fluoro-6-(2,2,2-trifluoroethoxy)pyridin-3-yl)ethyl)-2-methyl-6-propionamidoisonicotinamide] | < 1000 nM
14 | CC(=O)Nc1cc(C(=O)NCc2cnc(OCC(F)(F)F)c(-c3ccco3)c2)ccn1 [Example 770, 2-acetamido-N-((5-(furan-2-yl)-6-(2,2,2-trifluoroethoxy)pyridin-3-yl)methyl)isonicotinamide] | < 1000 nM
15 | CCCC(=O)Nc1cc(C(=O)NC(C)c2ccc(OCC(C)(F)F)nc2)ccn1 (single isomer, unassigned) [Example 787, 2-butyramido-N-(1-(6-(2,2-difluoropropoxy)pyridin-3-yl)ethyl)isonicotinamide] | < 1000 nM
16 | CC(=O)Nc1cc(C(=O)NC(C)c2cnc(OCC(F)(F)F)c(C)c2)cc(C)n1 (single isomer, unassigned) [Example 379, 2-acetamido-6-methyl-N-(1-(5-methyl-6-(2,2,2-trifluoroethoxy)pyridin-3-yl)ethyl)isonicotinamide] | < 1000 nM
17 | CCC(=O)Nc1cc(C(=O)NCc2ccc(OCC(F)(F)F)c(OC)c2)ccn1 [Example 882, N-(3-methoxy-4-(2,2,2-trifluoroethoxy)benzyl)-2-propionamidoisonicotinamide] | < 1000 nM
18 | Cc1cc(C(=O)NC(C)c2ccc(OCC(F)(F)F)nc2)cc(NC(=O)C2CC2)n1 (single isomer, unassigned) [Example 61, 2-(cyclopropanecarboxamido)-6-methyl-N-(1-(6-(2,2,2-trifluoroethoxy)pyridin-3-yl)ethyl)isonicotinamide] | < 1000 nM
19 | Cc1cc(C(=O)NCc2ccc(OCC(F)F)c(C)c2)cc(NC(=O)C(C)C)n1 [Example 994, N-(4-(2,2-difluoroethoxy)-3-methylbenzyl)-2-isobutyramido-6-methylisonicotinamide] | < 1000 nM
20 | Cc1cc(C(C)NC(=O)c2ccnc(NC(=O)C3CC3)n2)ccc1OCC(F)F (single isomer, unassigned) [Example 863, 2-(cyclopropanecarboxamido)-N-(1-(4-(2,2-difluoroethoxy)-3-methylphenyl)ethyl)pyrimidine-4-carboxamide] | < 1000 nM

More lines, now with the values ahead:

Row | IC50 | SMILES
21 | < 1000 nM | CCC(=O)Nc1cc(C(=O)NC(C)c2ccc(OCC(F)(F)F)nc2)ccn1 (single isomer, unassigned) [Example 11, 2-propionamido-N-(1-(6-(2,2,2-trifluoroethoxy)pyridin-3-yl)ethyl)isonicotinamide]
22 | < 1000 nM | Cc1cc(C(=O)NC(C)c2ccc(OCC(F)(F)C(F)(F)F)nc2)cc(NC(=O)C(C)C)n1 (single isomer, unassigned) [Example 693, 2-isobutyramido-6-methyl-N-(1-(6-(2,2,3,3,3-pentafluoropropoxy)pyridin-3-yl)ethyl)isonicotinamide]
23 | < 1000 nM | CCc1cc(CNC(=O)c2ccnc(NC(=O)C3CC3)c2)cnc1OCC(F)F [Example 931, 2-(cyclopropanecarboxamido)-N-((6-(2,2-difluoroethoxy)-5-ethylpyridin-3-yl)methyl)isonicotinamide]
24 | < 1000 nM | CC(NC(=O)c1ccnc(NC(=O)C2CC2)c1)c1ccc(OCC(F)(F)F)c(Cl)c1 (single isomer, unassigned) [Example 675, N-(1-(3-chloro-4-(2,2,2-trifluoroethoxy)phenyl)ethyl)-2-(cyclopropanecarboxamido)isonicotinamide]
25 | < 1000 nM | CCOc1nc(OCC(F)(F)F)ccc1CNC(=O)c1cc(C)nc(NC(=O)CC)c1 [Example 334, N-((2-ethoxy-6-(2,2,2-trifluoroethoxy)pyridin-3-yl)methyl)-2-methyl-6-propionamidoisonicotinamide]
26 | < 1000 nM | COc1nc(OCC(F)F)ccc1C(C)NC(=O)c1cc(C)nc(NC(=O)C(C)C)c1 (single isomer, unassigned) [Example 1166, N-(1-(6-(2,2-difluoroethoxy)-2-methoxypyridin-3-yl)ethyl)-2-isobutyramido-6-methylisonicotinamide]
27 | < 1000 nM | Cc1cc(C(=O)NCc2cccc(OCC(F)F)c2C)cc(NC(=O)C(C)C)n1 [Example 1131, N-(3-(2,2-difluoroethoxy)-2-methylbenzyl)-2-isobutyramido-6-methylisonicotinamide]
28 | < 1000 nM | COc1c(CNC(=O)c2cc(C)nc(NC(C)=O)c2)cccc1C(F)(F)F [Example 819, 2-acetamido-N-(2-methoxy-3-(trifluoromethyl)benzyl)-6-methylisonicotinamide]
29 | < 1000 nM | Cc1cc(C(=O)NCc2cnc(OCC(F)(F)F)c(Br)c2)cc(NC(=O)C2CC2)n1 [Example 900, N-((5-bromo-6-(2,2,2-trifluoroethoxy)pyridin-3-yl)methyl)-2-(cyclopropanecarboxamido)-6-methylisonicotinamide]
30 | < 1000 nM | CC(NC(=O)c1ccnc(NC(=O)C2CC2)n1)c1ccc(OCC(F)(F)F)cc1 (single isomer, unassigned) [Example 405, 2-(cyclopropanecarboxamido)-N-(1-(4-(2,2,2-trifluoroethoxy)phenyl)ethyl)pyrimidine-4-carboxamide]
31 | < 1000 nM | COc1cc(CNC(=O)c2ccnc(NC(C)=O)c2)ccc1OCC(F)(F)F [Example 1078, 2-acetamido-N-(3-methoxy-4-(2,2,2-trifluoroethoxy)benzyl)isonicotinamide]
32 | < 1000 nM | CC(NC(=O)c1ccnc(NC(=O)C2CC2)c1)c1ccc(OCC(F)(F)C(F)(F)F)nc1 (single isomer, unassigned) [Example 689, 2-(cyclopropanecarboxamido)-N-(1-(6-(2,2,3,3,3-pentafluoropropoxy)pyridin-3-yl)ethyl)isonicotinamide]
33 | < 1000 nM | CC(C)C(=O)Nc1cc(C(=O)NCc2ccc(OCC(F)(F)F)nc2N2CCCCC2)ccn1 [Example 305, 2-isobutyramido-N-((2-(piperidin-1-yl)-6-(2,2,2-trifluoroethoxy)pyridin-3-yl)methyl)isonicotinamide]
34 | < 1000 nM | CCC(=O)Nc1cc(C(=O)NCc2ccc(OCC(F)(F)F)nc2N2CCCCC2)ccn1 [Example 303, N-((2-(piperidin-1-yl)-6-(2,2,2-trifluoroethoxy)pyridin-3-yl)methyl)-2-propionamidoisonicotinamide]
35 | < 1000 nM | Cc1cc(OCC(F)(F)F)ncc1CNC(=O)c1ccnc(NC(=O)C(C)C)c1 [Example 178, 2-isobutyramido-N-((4-methyl-6-(2,2,2-trifluoroethoxy)pyridin-3-yl)methyl)isonicotinamide]
36 | < 1000 nM | CCC(=O)Nc1cc(C(=O)NC(C)c2ccc(OCC(F)(F)F)c(Cl)c2)ccn1 (single isomer, unassigned) [Example 673, N-(1-(3-chloro-4-(2,2,2-trifluoroethoxy)phenyl)ethyl)-2-propionamidoisonicotinamide]
